From patent US10947252B2, “Inhibitors of KEAP1-Nrf2 protein-protein interaction” (Janssen Pharmaceutica NV, priority 2018, dated 2021)

Assays:
[1] = target: Kelch domain of human KEAP1 (321-624 aa) (Homo sapiens (Human), UniProt Q14145); test: KEAP1 KELCH ThermoFluor binding assay; conditions: KEAP Kelch […], 1,8-ANS, pH 7.0, average of results obtained, read-out: Tf Kd;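 note: Ligand-induced melting temperature shift of E. coli-expressed KEAP1 Kelch protein, Kd estimated from concentration-response curves of ΔTm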
Kelch domain of human KEAP1 (321-624 aa), sequence (Q14145 321-624): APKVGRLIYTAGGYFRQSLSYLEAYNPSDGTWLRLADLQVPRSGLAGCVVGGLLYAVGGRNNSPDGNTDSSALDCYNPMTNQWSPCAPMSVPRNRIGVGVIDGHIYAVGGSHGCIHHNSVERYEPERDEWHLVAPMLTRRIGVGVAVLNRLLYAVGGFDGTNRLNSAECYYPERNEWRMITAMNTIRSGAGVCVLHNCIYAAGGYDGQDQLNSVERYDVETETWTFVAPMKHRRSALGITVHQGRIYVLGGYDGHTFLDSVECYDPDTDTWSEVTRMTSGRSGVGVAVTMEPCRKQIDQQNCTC
From the text: The shift in the melting point described as a ΔTm is proportional to the concentration and affinity of the ligand. The compound potency may be compared as a rank order of either ΔTm values at a single compound concentration or in terms of KD values, estimated from concentration response curves.
The protein was expressed in E. coli with 6His tag that was cleaved prior to receipt for use.
Protein (KEAP Kelch) and compound solutions were dispensed into black 384-well polypropylene PCR microplates (Abgene) and overlayed with silicone oil (1 μL, Fluka, type DC 200) to prevent evaporation.

[2] = system: Glo-Response ARE-luc2P HEK293 cell line; test: ARE luciferase reporter cell-based assay; conditions: Homo sapiens, HEK293, 24 h, average of results obtained;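 note: luciferase signal tracks Nrf2 activation of the ARE once compounds disrupt KEAP1-Nrf2 binding, read with One-Glo reagent, DMSO serving as low control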

Kd [1] | SMILES | EC50 [2]
< 1 nM | Cc1cnc2c(c1)S(=O)(=O)N(Cc1cc([C@H](CC(=O)O)c3ccn4c(C(F)(F)F)nnc4c3C)ccc1C)CC1(CCOCC1)O2 (single isomer, unassigned) [Example 208, (*S)-3-(4-Methyl-3-((8′-methyl-1′,1′-dioxido-2,3,5,6-tetrahydrospiro[pyran-4,4′-pyrido[2,3-b][[,4,5]oxathiazepin]-2′(3′H)-yl)methyl)phenyl)-3-(8-methyl-3-(trifluoromethyl)-[1,2,4]triazolo[4,3-a]pyridin-7-yl)propanoic Acid] | 19 nM
< 1 nM | Cc1ccc([C@H](CC(=O)O)c2ccc3c(nnn3C3CC3)c2C)cc1CN1C[C@H]2CCCN2c2ncccc2S1(=O)=O (single isomer, unassigned) [Example 210, (*S)-3-(1-Cyclopropyl-4-methyl-1H-benzo[d][1,2,3]triazol-5-yl)-3-(3-(((R)-5,5-dioxido-7a,8,9,10-tetrahydropyrido[2,3-f]pyrrolo[2,1-d][1,2,5]thiadiazepin-6(7H)-yl)methyl)-4-methylphenyl)propanoic Acid] | 7.7 nM
1.1 nM | Cc1ccc([C@@H](CC(=O)O)c2ccc3c(nnn3C3CC3)c2C)cc1CN1C[C@H]2CCCN2c2ncccc2S1(=O)=O (single isomer, unassigned) [Example 211, (*R)-3-(1-Cyclopropyl-4-methyl-1H-benzo[d][1,2,3]triazol-5-yl)-3-(3-(((R)-5,5-dioxido-7a,8,9,10-tetrahydropyrido[2,3-f]pyrrolo[2,1-d][1,2,5]thiadiazepin-6(7H)-yl)methyl)-4-methylphenyl)propanoic Acid] | 42 nM
< 1 nM | Cc1ccc([C@H](CC(=O)O)c2ccc3c(nnn3C3CC3)c2C)cc1CN1C[C@H]2CCCCN2c2ncccc2S1(=O)=O (single isomer, unassigned) [Example 212, (*S)-3-(1-Cyclopropyl-4-methyl-1H-benzo[d][1,2,3]triazol-5-yl)-3-(3-(((*R)-5,5-dioxido-7,7a,8,9,10,11-hexahydro-6H-dipyrido[2,1-d:2′,3′-f][1,2,5]thiadiazepin-6-yl)methyl)-4-methylphenyl)propanoic Acid] | 3.7 nM
< 1 nM | Cc1ccc([C@@H](CC(=O)O)c2ccc3c(nnn3C3CC3)c2C)cc1CN1C[C@H]2CCCCN2c2ncccc2S1(=O)=O (single isomer, unassigned) [Example 213, (*R)-3-(1-Cyclopropyl-4-methyl-1H-benzo[d][1,2,3]triazol-5-yl)-3-(3-(((*R)-5,5-dioxido-7,7a,8,9,10,11-hexahydro-6H-dipyrido[2,1-d:2′,3′-f][1,2,5]thiadiazepin-6-yl)methyl)-4-methylphenyl)propanoic Acid] | 8 nM
< 1 nM | Cc1ccc([C@H](CC(=O)O)c2ccc3c(nnn3C3CC3)c2C)cc1CN1CC2(COC2)Oc2ccccc2S1(=O)=O (single isomer, unassigned) [Example 215, (*S)-3-(1-Cyclopropyl-4-methyl-1H-benzo[d][1,2,3]triazol-5-yl)-3-(3-((1,1-dioxidospiro[benzo[b][1,4,5]oxathiazepine-4,3′-oxetan]-2(3H)-yl)methyl)-4-methylphenyl)propanoic Acid] | 3.3 nM
2 nM | Cc1ccc([C@@H](CC(=O)O)c2ccc3c(nnn3C3CC3)c2C)cc1CN1CC2(COC2)Oc2ccccc2S1(=O)=O (single isomer, unassigned) [Example 216, (*R)-3-(1-Cyclopropyl-4-methyl-1H-benzo[d][1,2,3]triazol-5-yl)-3-(3-((1,1-dioxidospiro[benzo[b][1,4,5]oxathiazepine-4,3′-oxetan]-2(3H)-yl)methyl)-4-methylphenyl)propanoic Acid] | 38 nM
< 1 nM | Cc1ccc([C@@H](CC(=O)O)c2ccc3c(nnn3C3CC3)c2C)cc1CN1C[C@]2(C)CCCN2c2ncccc2S1(=O)=O (single isomer, unassigned) [Example 220, (*R)-3-(1-Cyclopropyl-4-methyl-1H-benzo[d][1,2,3]triazol-5-yl)-3-(4-methyl-3-(((*S)-7a-methyl-5,5-dioxido-7a,8,9,10-tetrahydropyrido[2,3-f]pyrrolo[2,1-d][1,2,5]thiadiazepin-6(7H)-yl)methyl)phenyl)propanoic Acid] | 61 nM
14 nM | Cc1ccc([C@H](CC(=O)O)c2ccc3c(nnn3C3CC3)c2C)cc1CN1C[C@@]2(C)CCCN2c2ncccc2S1(=O)=O (single isomer, unassigned) [Example 222, (*S)-3-(1-Cyclopropyl-4-methyl-1H-benzo[d][1,2,3]triazol-5-yl)-3-(4-methyl-3-(((*R)-7a-methyl-5,5-dioxido-7a,8,9,10-tetrahydropyrido[2,3-f]pyrrolo[2,1-d][1,2,5]thiadiazepin-6(7H)-yl)methyl)phenyl)propanoic Acid] | 350 nM
190 nM | Cc1ccc([C@@H](CC(=O)O)c2ccc3c(nnn3C3CC3)c2C)cc1CN1C[C@@]2(C)CCCN2c2ncccc2S1(=O)=O (single isomer, unassigned) [Example 223, (*R)-3-(1-Cyclopropyl-4-methyl-1H-benzo[d][1,2,3]triazol-5-yl)-3-(4-methyl-3-(((*R)-7a-methyl-5,5-dioxido-7a,8,9,10-tetrahydropyrido[2,3-f]pyrrolo[2,1-d][1,2,5]thiadiazepin-6(7H)-yl)methyl)phenyl)propanoic Acid] | 5460 nM
6 nM | Cc1ccc([C@@H](CC(=O)O)c2ccc3c(nnn3C3CC3)c2C)cc1CN1CC2(CC2)N(C)c2ncccc2S1(=O)=O (single isomer, unassigned) [Example 226, (*R)-3-(1-Cyclopropyl-4-methyl-1H-benzo[d][1,2,3]triazol-5-yl)-3-(4-methyl-3-((5′-methyl-1′,1′-dioxido-5′H-spiro[cyclopropane-1,4′-pyrido[2,3-f][1,2,5]thiadiazepin]-2′(3′H)-yl)methyl)phenyl)propanoic Acid] | 160 nM
< 1 nM | Cc1cnc2c(c1)S(=O)(=O)N(Cc1cc([C@H](c3ccc4c(nnn4C4CC4)c3C)C(C)(C)C(=O)O)cnc1C)CC1(CCOCC1)O2 (single isomer, unassigned) [Example 228, (*S)-3-(1-Cyclopropyl-4-methyl-1H-benzo[d][1,2,3]triazol-5-yl)-2,2-dimethyl-3-(6-methyl-5-((8′-methyl-1′,1′-dioxido-2,3,5,6-tetrahydrospiro[pyran-4,4′-pyrido[2,3-b][1,4,5]oxathiazepin]-2′(3′H)-yl)methyl)pyridin-3-yl)propanoic Acid] | 10 nM
17000 nM | Cc1cnc2c(c1)S(=O)(=O)N(Cc1cc([C@@H](c3ccc4c(nnn4C4CC4)c3C)C(C)(C)C(=O)O)cnc1C)CC1(CCOCC1)O2 (single isomer, unassigned) [Example 229, (*R)-3-(1-Cyclopropyl-4-methyl-1H-benzo[d][1,2,3]triazol-5-yl)-2,2-dimethyl-3-(6-methyl-5-((8′-methyl-1′,1′-dioxido-2,3,5,6-tetrahydrospiro[pyran-4,4′-pyrido[2,3-b][1,4,5]oxathiazepin]-2′(3′H)-yl)methyl)pyridin-3-yl)propanoic Acid] | 2430 nM
< 1 nM | Cc1ccc([C@H](CC(=O)O)c2ccn3c(C4CC4)nnc3c2C)cc1CN1CC2(CC2)Oc2ncc(F)cc2S1(=O)=O (single isomer, unassigned) [Example 230, (*S)-3-(3-Cyclopropyl-8-methyl-[1,2,4]triazolo[4,3-a]pyridin-7-yl)-3-(3-((8′-fluoro-1′,1′-dioxidospiro[cyclopropane-1,4′-pyrido[2,3-b][1,4,5]oxathiazepin]-2′(3′H)-yl)methyl)-4-methylphenyl)propanoic Acid] | 480 nM
< 1 nM | Cc1ccc([C@H](CC(=O)O)c2ccc3c(nnn3CC3CC3)c2C)cc1CN1C[C@@H]2CCCCN2c2ncccc2S1(=O)=O (single isomer, unassigned) [Example 232, (*S)-3-(1-(Cyclopropylmethyl)-4-methyl-1H-benzo[d][1,2,3]triazol-5-yl)-3-(3-(((*S)-5,5-dioxido-7,7a,8,9,10,11-hexahydro-6H-dipyrido[2,1-d:2′,3′-f][1,2,5]thiadiazepin-6-yl)methyl)-4-methylphenyl)propanoic Acid] | 2.6 nM
< 1 nM | Cc1ccc([C@@H](CC(=O)O)c2ccc3c(nnn3CC3CC3)c2C)cc1CN1C[C@@H]2CCCCN2c2ncccc2S1(=O)=O (single isomer, unassigned) [Example 233, (*R)-3-(1-(Cyclopropylmethyl)-4-methyl-1H-benzo[d][1,2,3]triazol-5-yl)-3-(3-(((*S)-5,5-dioxido-7,7a,8,9,10,11-hexahydro-6H-dipyrido[2,1-d:2′,3′-f][1,2,5]thiadiazepin-6-yl)methyl)-4-methylphenyl)propanoic Acid] | 80 nM
< 1 nM | Cc1ccc([C@@H](CC(=O)O)c2ccc3c(nnn3CC3CC3)c2C)cc1CN1C[C@H]2CCCCN2c2ncccc2S1(=O)=O (single isomer, unassigned) [Example 235, (*R)-3-(1-(Cyclopropylmethyl)-4-methyl-1H-benzo[d][1,2,3]triazol-5-yl)-3-(3-(((*R)-5,5-dioxido-7,7a,8,9,10,11-hexahydro-6H-dipyrido[2,1-d:2′,3′-f][1,2,5]thiadiazepin-6-yl)methyl)-4-methylphenyl)propanoic Acid] | 1.9 nM
< 1 nM | Cc1ccc([C@H](CC(=O)O)c2ccc3c(nnn3CC3CC3)c2C)cc1CN1C[C@H]2CCCCN2c2ncccc2S1(=O)=O (single isomer, unassigned) [Example 236, (*S)-3-(1-(Cyclopropylmethyl)-4-methyl-1H-benzo[d][1,2,3]triazol-5-yl)-3-(3-(((*R)-5,5-dioxido-7,7a,8,9,10,11-hexahydro-6H-dipyrido[2,1-d:2′,3′-f][1,2,5]thiadiazepin-6-yl)methyl)-4-methylphenyl)propanoic Acid] | 6.8 nM
